Measured values: patent US20240217978A1 (CHONG KUN DANG PHARMACEUTICAL CORP., priority 2021, published 2024)

Target: human adenosine A2a receptor (Homo sapiens (Human), UniProt P29274)
Assay: A2a receptor binding affinity, [3H]-NECA radioligand binding test
Conditions: [3H]-NECA 37 nM; membrane from HEK-293 cells transfected with human adenosine A2a receptor
Outline: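 IC50 values (μM) come from displacement of [3H]-NECA, used at 37 nM final, on human A2a receptor membranes from transfected HEK-293 cells. Incubation lasted one hour at room temperature in Tris/MgCl2/EDTA buffer, pH 7.4; filter-bound radioactivity was counted by scintillation.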

Sequence of human adenosine A2a receptor (P29274 whole entry): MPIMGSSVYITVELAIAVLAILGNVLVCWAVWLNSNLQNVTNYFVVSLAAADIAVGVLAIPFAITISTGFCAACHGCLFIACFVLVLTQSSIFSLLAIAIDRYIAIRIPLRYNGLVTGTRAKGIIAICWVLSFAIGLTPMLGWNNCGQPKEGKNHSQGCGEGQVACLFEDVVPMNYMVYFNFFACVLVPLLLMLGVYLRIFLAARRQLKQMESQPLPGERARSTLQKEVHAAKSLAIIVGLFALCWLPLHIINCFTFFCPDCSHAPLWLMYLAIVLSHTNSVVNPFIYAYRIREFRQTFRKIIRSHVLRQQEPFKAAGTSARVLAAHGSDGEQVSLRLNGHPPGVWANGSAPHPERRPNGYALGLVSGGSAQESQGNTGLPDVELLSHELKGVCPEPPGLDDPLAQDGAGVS

COc1ccc(NC(=O)N2CCN(C(=O)[C@@H]3CCCN3c3nc(N)n4nc(-c5ccco5)nc4n3)CC2)cc1 [Example 62, 4-((7-amino-2-(furan-2-yl)-[1,2,4]triazolo[1,5-a][1,3,5]triazin-5-yl)-L-prolyl)-N-(4-methoxyphenyl)piperazin-1-carboxamide] gave an IC50 of 6 nM.

Nc1nc(N2CCC[C@H]2C(=O)N2CCC(C(=O)Nc3ccccc3)CC2)nc2nc(-c3ccco3)nn12 [Example 78, 1-((7-amino-2-(furan-2-yl)-[1,2,4]triazolo[1,5-a][1,3,5]triazin-5-yl)-L-prolyl)-N-phenylpiperidin-4-carboxamide] gave an IC50 of 14 nM.

Work on Nc1nc(N[C@H](C(=O)N2CCN(CC(F)(F)F)CC2)C2CCCCC2)nc2nc(-c3nccs3)nn12 [Example 250, (S)-2-((7-amino-2-(thiazol-2-yl)-[1,2,4]triazolo[1,5-a][1,3,5]triazin-5-yl)amino)-2-cyclohexyl-1-(4-(2,2,2-trifluoroethyl)piperazin-1-yl)ethan-1-one] yielded an IC50 of 9 nM.

CCCCN1CCN(C(=O)[C@H](Cc2ccccc2)Nc2nc(N)n3nc(-c4ccco4)nc3n2)CC1 [Example 191, (S)-2-((7-amino-2-(furan-2-yl)-[1,2,4]triazolo[1,5-a][1,3,5]triazin-5-yl)amino)-1-(4-butylpiperazin-1-yl)-3-phenylpropan-1-one] gave an IC50 of 6 nM.

Cc1ccc(-c2nc3nc(N4CC[C@H]4C(=O)N4CCN(CC(F)(F)F)CC4)nc(N)n3n2)o1 [Example 220, (S)-(1-(7-amino-2-(5-methylfuran-2-yl)-[1,2,4]triazolo[1,5-a][1,3,5]triazin-5-yl)azetidin-2-yl)(4-(2,2,2-trifluoroethyl)piperazin-1-yl)methanone] showed an IC50 of 15 nM.

In the case of CCCCCN1CCN(C(=O)[C@@H]2CCCN2c2nc(N)n3nc(-c4ccco4)nc3n2)CC1 [Example 138, (S)-(1-(7-amino-2-(furan-2-yl)-[1,2,4]triazolo[1,5-a][1,3,5]triazin-5-yl)pyrrolidin-2-yl)(4-pentylpiperazin-1-yl)methanone], the IC50 is reported as 2 nM.

Nc1nc(N2CCC[C@H]2C(=O)N2CCC3(CC2)CN(Cc2ccc(F)cc2F)C3)nc2nc(-c3ccco3)nn12 [Example 52, (S)-(1-(7-amino-2-(furan-2-yl)-[1,2,4]triazolo[1,5-a][1,3,5]triazin-5-yl)pyrrolidin-2-yl)(2-(2,4-difluorobenzyl)-2,7-diazaspiro[3.5]nonan-7-yl)methanone] was tested, and the IC50 was 16 nM.

Work on CCC1CCC(N2CCN(C(=O)[C@@H]3CCCN3c3nc(N)n4nc(-c5ccco5)nc4n3)CC2)CC1 (stereo partly drawn) [Example 152, (S)-(1-(7-amino-2-(furan-2-yl)-[1,2,4]triazolo[1,5-a][1,3,5]triazin-5-yl)pyrrolidin-2-yl)(4-(4-ethylcyclohexyl)piperazin-1-yl) methanone] yielded an IC50 of 19 nM.

In the case of CC[C@H](Nc1nc(N)n2nc(-c3ccco3)nc2n1)C(=O)N1CCN(CC(F)(F)C(F)F)CC1 [Example 358, (S)-2-((7-amino-2-(furan-2-yl)-[1,2,4]triazolo[1,5-a][1,3,5]triazin-5-yl)amino)-1-(4-(2,2,3,3-tetrafluoropropyl)piperazin-1-yl)butan-1-one], the IC50 is reported as 10 nM.

Work on Nc1nc(N2CCC[C@H]2C(=O)N2CCN(C3CCCCC3)CC23CC3)nc2nc(-c3ccco3)nn12 [Example 344, (S)-(1-(7-amino-2-(furan-2-yl)-[1,2,4]triazolo[1,5-a][1,3,5]triazin-5-yl)pyrrolidin-2-yl)(7-cyclohexyl-4,7-diazaspiro[2.5]octan-4-yl)methanone] yielded an IC50 of 16 nM.

For CCC(F)(CC)CN1CCN(C(=O)[C@@H]2CCCN2c2nc(N)n3nc(-c4ccco4)nc3n2)CC1 [Example 43, (S)-(1-(7-amino-2-(furan-2-yl)-[1,2,4]triazolo[1,5-a][1,3,5]triazin-5-yl)pyrrolidin-2-yl)(4-(2-ethyl-2-fluorobutyl)piperazin-1-yl)methanone], the IC50 was 11 nM.

Molecule C[C@H](Nc1nc(N)n2nc(-c3ccco3)nc2n1)C(=O)N1CCN(c2ncccn2)CC1 [Example 240, (S)-2-((7-amino-2-(furan-2-yl)-[1,2,4]triazolo[1,5-a][1,3,5]triazin-5-yl)amino)-1-(4-(pyrimidin-2-yl)piperazin-1-yl)propan-1-one] has an IC50 of 0.3 nM.

For Nc1nc(N2CCC[C@H]2C(=O)N2CCN(CC(F)F)CC2)cc2nc(-c3ccco3)nn12 [Example 293, (S)-(1-(5-amino-2-(furan-2-yl)-[1,2,4]triazolo[1,5-c]pyrimidin-7-yl)pyrrolidin-2-yl)(4-(2,2-difluoroethyl)piperazin-1-yl)methanone], the IC50 was 3 nM.

CC[C@H](Nc1nc(N)n2nc(-c3ccco3)nc2n1)C(=O)N1CCN(c2ccc(F)cc2F)CC1 [Example 162, (S)-2-((7-amino-2-(furan-2-yl)-[1,2,4]triazolo[1,5-a][1,3,5]triazin-5-yl)amino)-1-(4-(2,4-difluorophenyl)piperazin-1-yl)butan-1-one] was tested, and the IC50 was 8 nM.

CC(F)(F)CN1CC2(CCN(C(=O)[C@@H]3CCCN3c3nc(N)n4nc(-c5ccco5)nc4n3)CC2)C1 [Example 364, (S)-(1-(7-amino-2-(furan-2-yl)-[1,2,4]triazolo[1,5-a][1,3,5]triazin-5-yl)pyrrolidin-2-yl)(2-(2,2-difluoropropyl)-2,7-diazaspiro[3.5]nonan-7-yl)methanone] gave an IC50 of 12 nM.

With CCCCN1CCC(C2CCN(C(=O)[C@@H]3CCN3c3nc(N)n4nc(-c5ccco5)nc4n3)CC2)CC1 [Example 328, (S)-(1-(7-amino-2-(furan-2-yl)-[1,2,4]triazolo[1,5-a][1,3,5]triazin-5-yl)azetidin-2-yl)(1′-butyl-[4,4′-bipiperidin]-1-yl)methanone] the IC50 was 25 nM.

Work on COCCN1CCC(C2CCN(C(=O)[C@@H]3CCN3c3cc4nc(-c5ccco5)nn4c(N)n3)CC2)CC1 [Example 380, (S)-(1-(5-amino-2-(furan-2-yl)-[1,2,4]triazolo[1,5-c]pyrimidin-7-yl)azetidin-2-yl)(1′-(2-methoxyethyl)-[4,4′-bipiperidin]-1-yl)methanone] yielded an IC50 of 5 nM.

COC[C@H](Nc1nc(N)n2nc(-c3ccco3)nc2n1)C(=O)N1CCN(CC(C)(C)F)CC1 [Example 303, (S)-2-((7-amino-2-(furan-2-yl)-[1,2,4]triazolo[1,5-a][1,3,5]triazin-5-yl)amino)-1-(4-(2-fluoro-2-methylpropyl)piperazin-1-yl)-3-methoxypropan-1-one] showed an IC50 of 6 nM.

Work on Nc1nc(N2CC[C@H]2C(=O)N2CCN(CC(F)F)CC2)nc2nc(-c3ccco3)nn12 [Example 252, (S)-(1-(7-amino-2-(furan-2-yl)-[1,2,4]triazolo[1,5-a][1,3,5]triazin-5-yl)azetidin-2-yl)(4-(2,2-difluoroethyl)piperazin-1-yl)methanone] yielded an IC50 of 6 nM.

Molecule Nc1nc(N2CCC[C@@H]2C(=O)N2CCN(C(=O)Nc3ccccc3)CC2)nc2nc(-c3ccco3)nn12 [Example 100] has an IC50 of 9460 nM.

Nc1nc(N2CCC[C@H]2C(=O)N2CCN(C(=O)c3cscn3)CC2)nc2nc(-c3ccco3)nn12 [Example 105] was tested, and the IC50 was 3 nM.

In the case of CC(C)S(=O)(=O)N1CCN(C(=O)[C@@H]2CCCN2c2nc(N)n3nc(-c4ccco4)nc3n2)CC1 [Example 71, (S)-(1-(7-amino-2-(furan-2-yl)-[1,2,4]triazolo[1,5-a][1,3,5]triazin-5-yl)pyrrolidin-2-yl)(4-(isopropylsulfonyl)piperazin-1-yl)methanone], the IC50 is reported as 10 nM.

In the case of Nc1nc(N2CCC[C@H]2C(=O)N2CCN(C(=O)C3(C(F)(F)F)CCCC3)CC2)nc2nc(-c3ccco3)nn12 [Example 76], the IC50 is reported as 2 nM.

Work on COC[C@H](Nc1nc(N)n2nc(-c3ccco3)nc2n1)C(=O)N1CCN(C2CCC(F)(F)CC2)CC1 [Example 398, (S)-2-((7-amino-2-(furan-2-yl)-[1,2,4]triazolo[1,5-a][1,3,5]triazin-5-yl)amino)-1-(4-(4,4-difluorocyclohexyl)piperazin-1-yl)-3-methoxypropan-1-one] yielded an IC50 of 20 nM.

Cc1ccc(-c2nc3nc(N4CC[C@H]4C(=O)N4CCN(Cc5ccccc5)CC4)nc(N)n3n2)o1 [Example 218, (S)-(1-(7-amino-2-(5-methylfuran-2-yl)-[1,2,4]triazolo[1,5-a][1,3,5]triazin-5-yl)azetidin-2-yl)(4-benzylpiperazin-1-yl)methanone] gave an IC50 of 10 nM.

Nc1nc(N[C@H](C(=O)N2CCN(CC(F)(F)F)CC2)C2CC2)nc2nc(-c3ccco3)nn12 [Example 216, (S)-2-((7-amino-2-(furan-2-yl)-[1,2,4]triazolo[1,5-a][1,3,5]triazin-5-yl)amino)-2-cyclopropyl-1-(4-(2,2,2-trifluoroethyl)piperazin-1-yl)ethan-1-one] was tested, and the IC50 was 18 nM.

CC[C@H](Nc1nc(N)n2nc(-c3ccco3)nc2n1)C(=O)N1CCN(c2ncccn2)CC1 [Example 346, (S)-2-((7-amino-2-(furan-2-yl)-[1,2,4]triazolo[1,5-a][1,3,5]triazin-5-yl)amino)-1-(4-(pyrimidin-2-yl)piperazin-1-yl)butan-1-one] showed an IC50 of 8 nM.

Molecule Nc1nc(N2CCC[C@@H]2C(=O)N2CCN(C(=O)c3ccccc3)CC2)nc2nc(-c3ccco3)nn12 [Example 98] has an IC50 of 11300 nM.

Nc1nc(N2CC[C@H]2C(=O)N2CCN(CCCC(F)(F)F)CC2)nc2nc(-c3ccco3)nn12 [Example 264, (S)-(1-(7-amino-2-(furan-2-yl)-[1,2,4]triazolo[1,5-a][1,3,5]triazin-5-yl)azetidin-2-yl)(4-(4,4,4-trifluorobutyl)piperazin-1-yl)methanone] showed an IC50 of 10 nM.

Nc1nc(N[C@@H](Cc2ccccc2)C(=O)N2CCN(S(=O)(=O)c3ccccc3)CC2)nc2nc(-c3ccco3)nn12 [Example 6, (S)-2-((7-amino-2-(furan-2-yl)-[1,2,4]triazolo[1,5-a][1,3,5]triazin-5-yl)amino)-3-phenyl-1-(4-(phenylsulfonyl)piperazin-1-yl)propan-1-one] gave an IC50 of 0.214 nM.

Molecule COCCN1CCC(C2CCN(C(=O)[C@@H]3CCCN3c3nc(N)n4nc(-c5ccco5)nc4n3)CC2)CC1 [Example 266, (S)-(1-(7-amino-2-(furan-2-yl)-[1,2,4]triazolo[1,5-a][1,3,5]triazin-5-yl)pyrrolidin-2-yl)(1′-(2-methoxyethyl)-[4,4′-bipiperidin]-1-yl) methanone] has an IC50 of 15 nM.
